In US20240158392A1 (Janssen Biotech, Inc., priority 2021, published 2024):

molecular target: SIK2 (Homo sapiens, UniProt Q9H0K1); experiment: SIK2 Enzymatic Assay High Version 2 (High ATP); assay type: biochemical; details: not given
Protocol: All steps were performed at room temperature. Compounds were pre-plated onto an assay plate using an Echo acoustic dispenser (Labcyte, E550 or E555) at 80 nL per well. Enzyme prepared in assay buffer at 6 nM (2× final concentration) was added at 4 μL per well using the Multidrop Combi (Thermo Fisher—used for all additions in this assay) to the assay plate, spun for 1 min at 1000 rpm (Allegra 6KR Beckman Coulter centrifuge), and incubated with compound for 30 minutes. Assay buffer containing 6 mM ATP and 400 μM HDAC5tide (2× of final concentration for each substrate) was added at 4 μL per well to the assay plate and then spun as above and incubated for 2 hours. […] ADP-Glo Max Reagent (prepared and aliquoted as per manufacturer instructions) was then added at 8 μL per well, spun and incubated for 2 hours. ADP-Glo Max Detection (prepared and aliquoted as per manufacturer instructions) was added at 8 μL per well to the assay plate, which was spun and incubated for 1 hour. The plate is then read on the Pherastar (BMG Labtech) using a luminescence read. Gain is set between 2200-2500.

SIK2, sequence (Q9H0K1 whole entry, species assumed): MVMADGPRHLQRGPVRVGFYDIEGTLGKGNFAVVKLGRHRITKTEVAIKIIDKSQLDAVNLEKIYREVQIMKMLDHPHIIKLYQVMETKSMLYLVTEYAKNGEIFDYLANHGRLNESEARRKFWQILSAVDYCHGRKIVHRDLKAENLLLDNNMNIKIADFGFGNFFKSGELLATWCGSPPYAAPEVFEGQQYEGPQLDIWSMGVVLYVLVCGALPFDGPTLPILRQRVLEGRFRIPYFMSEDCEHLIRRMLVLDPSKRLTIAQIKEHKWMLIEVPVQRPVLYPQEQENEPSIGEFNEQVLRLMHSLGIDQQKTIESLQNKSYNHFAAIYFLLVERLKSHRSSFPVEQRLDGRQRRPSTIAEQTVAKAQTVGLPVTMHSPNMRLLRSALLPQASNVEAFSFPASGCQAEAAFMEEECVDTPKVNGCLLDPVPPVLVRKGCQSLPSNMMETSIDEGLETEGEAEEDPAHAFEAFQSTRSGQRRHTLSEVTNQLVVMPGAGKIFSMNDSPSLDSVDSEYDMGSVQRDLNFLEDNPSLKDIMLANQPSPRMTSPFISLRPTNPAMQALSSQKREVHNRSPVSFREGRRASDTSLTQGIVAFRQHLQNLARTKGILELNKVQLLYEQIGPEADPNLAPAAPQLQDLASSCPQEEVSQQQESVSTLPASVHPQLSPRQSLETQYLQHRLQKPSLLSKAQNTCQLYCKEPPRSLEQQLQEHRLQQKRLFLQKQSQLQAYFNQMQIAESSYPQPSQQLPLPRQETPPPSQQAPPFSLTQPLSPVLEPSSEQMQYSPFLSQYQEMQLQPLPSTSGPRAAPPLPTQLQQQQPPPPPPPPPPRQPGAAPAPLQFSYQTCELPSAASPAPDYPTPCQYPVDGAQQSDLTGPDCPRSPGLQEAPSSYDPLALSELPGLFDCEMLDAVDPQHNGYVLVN

Structure (SMILES) | IC50 [µM]
Cc1cc(-c2ccn3nc(Nc4cc(C)nc(C)n4)cc3c2)c(OCC2CNS(=O)(=O)N2)cn1 (racemic) [Example 352, (rac-)-N-(2,6-dimethylpyrimidin-4-yl)-5-[5-[(1,1-dioxo-1,2,5-thiadiazolidin-3-yl)methoxy]-2-methyl-4-pyridyl]pyrazolo[1,5-a]pyridin-2-amine] | 0.0031
Cc1cc(-c2ccn3nc(Nc4cc(C)nc(C)n4)cc3c2)c(OCC2CCS(=O)(=O)N2)cn1 (racemic) [Example 353, (rac-)-N-(2,6-dimethylpyrimidin-4-yl)-5-[5-[(1,1-dioxo-1,2-thiazolidin-3-yl)methoxy]-2-methyl-4-pyridyl]pyrazolo[1,5-a]pyridin-2-amine] | 0.0451
Cc1cc(-c2ccn3nc(NC(=O)C4CC4)cc3c2)c(OCC2NCC2(F)F)cn1 (racemic) [Example 469, rac-N-[5-[5-[(3,3-difluoroazetidin-2-yl)methoxy]-2-methyl-4-pyridyl]pyrazolo[1,5-a]pyridin-2-yl]cyclopropanecarboxamide] | 0.00448
Cc1cc(-c2ccn3nc(NC(=O)C4CC4)cc3c2)c(OCC2NCC23CCOCC3)cn1 (racemic) [Example 472, Racemic-N-[5-[2-methyl-5-(7-oxa-2-azaspiro[3.5]nonan-3-ylmethoxy)-4-pyridyl]pyrazolo[1,5-a]pyridin-2-yl]cyclopropanecarboxamide] | 0.0263
CC[C@@H]1NC[C@@H]1Oc1cnc(C)cc1-c1ccn2nc(NC(=O)C3CC3)cc2c1 (relative stereo) [Example 453, (*S, *S)—N-[5-[5-(2-ethylazetidin-3-yl)oxy-2-methyl-4-pyridyl]pyrazolo[1,5-a]pyridin-2-yl]cyclopropanecarboxamide] | 0.0334
Cc1cc(-c2ccn3nc(NC(=O)C4CC4)cc3c2)c(O[C@@H]2CN(C)[C@@H]2C)cn1 (relative stereo) [Example 455, *R, *R—N-[5-[5-(1,2-dimethylazetidin-3-yl)oxy-2-methyl-4-pyridyl]pyrazolo[1,5-a]pyridin-2-yl]cyclopropanecarboxamide] | 0.0356

same assay, conditions: enzyme 6 nM, 6 mM ATP and 400 μM HDAC5tide (each 2× final concentration); 30 minutes pre-incubation, 2 hours; ADP-Glo Max luminescence; read-out: SIK2 high ATP IC50 (μM) (Test Example 2)

Structure (SMILES) | IC50 [µM]
Cc1cc(-c2ccn3nc(Nc4cc(C)nc(C)n4)cc3c2)c(OC[C@](C)(N)C(F)(F)F)cn1 (racemic) [Example 267, (rac-)-5-[5-(2-amino-3,3,3-trifluoro-2-methyl-propoxy)-2-methyl-4-pyridyl]-N-(2,6-dimethylpyrimidin-4-yl)pyrazolo[1,5-a]pyridin-2-amine] | 0.00331
Cc1cc(-c2ccn3nc(Nc4cc(C)nc(C)n4)cc3c2)c(OCC2CC(=O)N(C)C2)cn1 (racemic) [Example 542, (rac-)-4-[[4-[2-[(2,6-dimethylpyrimidin-4-yl)amino]pyrazolo[1,5-a]pyridin-5-yl]-6-methyl-3-pyridyl]oxymethyl]-1-methyl-pyrrolidin-2-one] | 0.0425
CO[C@H]1CN(C)C[C@@H]1COc1cnc(C)cc1-c1ccn2nc(NC(=O)C3CC3)cc2c1 (racemic) [Example 571, (3RS, 4RS)—N-[5-[5-[(4-methoxy-1-methyl-pyrrolidin-3-yl)methoxy]-2-methyl-4-pyridyl]pyrazolo[1,5-a]pyridin-2-yl]cyclopropanecarboxamide] | 0.165
Cc1cc(-c2ccn3nc(NC(=O)C4CC4)cc3c2)c(OCC(C)(N)C(F)(F)F)cn1 (single isomer, unassigned) [Example 160, (*S)—N-[5-[5-(2-amino-3,3,3-trifluoro-2-methyl-propoxy)-2-methyl-4-pyridyl]pyrazolo[1,5-a]pyridin-2-yl]cyclopropanecarboxamide] | 0.0444
Cc1cc(-c2ccn3nc(Nc4cc(C)nc(C)n4)cc3c2)c(OC[C@@H]2CCO[C@@H]2C)cn1 (single isomer, unassigned) [Example 207, N-(2,6-dimethylpyrimidin-4-yl)-5-(2-methyl-5-(((2*R,3*S)-2-methyltetrahydrofuran-3-yl)methoxy)pyridin-4-yl)pyrazolo[1,5-a]pyridin-2-amine] | 0.00878

Further lines, results first:

IC50 [µM] | Structure (SMILES)
0.0478 | Cc1cc(-c2ccn3nc(NC(=O)C4CC4)cc3c2)c(OCC2(O)CCC(F)(F)CC2)cn1 (racemic) [Example 188, rac-N-[5-[5-[(4,4-difluoro-1-hydroxy-cyclohexyl)methoxy]-2-methyl-4-pyridyl]pyrazolo[1,5-a]pyridin-2-yl]cyclopropanecarboxamide]
0.0469 | Cc1cc(-c2ccn3nc(Nc4cc(C)nc(C)n4)cc3c2)c(OC[C@@]2(O)CCOC2)cn1 (single isomer, unassigned) [Example 203, (*R)-3-(((4-(2-((2,6-dimethylpyrimidin-4-yl)amino)pyrazolo[1,5-a]pyridin-5-yl)-6-methylpyridin-3-yl)oxy)methyl)tetrahydrofuran-3-ol]
0.0412 | Cc1cc(-c2ccn3nc(NC(=O)C4CC4)cc3c2)c(O[C@@H]2CCC[C@@H](O)C2)cn1 (single isomer, unassigned) [Example 194, trans-N-(5-(5-(((1*R,3*R)-3-hydroxycyclohexyl)oxy)-2-methylpyridin-4-yl)pyrazolo[1,5-a]pyridin-2-yl)cyclopropanecarboxamide]
0.0367 | Cc1cc(-c2ccn3nc(NC(=O)C4CC4)cc3c2)c(OC[C@@](C)(O)C(F)(F)F)cn1 (single isomer, unassigned) [Example 189, (*R)—N-(5-(2-methyl-5-(3,3,3-trifluoro-2-hydroxy-2-methylpropoxy)pyridin-4-yl)pyrazolo[1,5-a]pyridin-2-yl)cyclopropanecarboxamide]
0.0261 | Cc1cc(Nc2cc3cc(-c4cc(O[C@H](C)C#N)ncc4O[C@H]4CC[C@H](O)CC4)ccn3n2)nc(C)n1 (relative stereo) [Example 721, (*R)-2-[[4-[2-[(2,6-dimethylpyrimidin-4-yl)amino]pyrazolo[1,5-a]pyridin-5-yl]-5-(4-hydroxycyclohexoxy)-2-pyridyl]oxy]propanenitrile]
0.0255 | Cc1cc(-c2ccn3nc(NC(=O)C4CC4)cc3c2)c(OC[C@](C)(O)C(F)(F)F)cn1 (single isomer, unassigned) [Example 190, (*S)—N-(5-(2-methyl-5-(3,3,3-trifluoro-2-hydroxy-2-methylpropoxy)pyridin-4-yl)pyrazolo[1,5-a]pyridin-2-yl)cyclopropanecarboxamide]
0.0234 | Cc1cc(-c2ccn3nc(NC(=O)C4CC4)cc3c2)c(OC[C@](C)(O)C2CC2)cn1 (single isomer, unassigned) [Example 193, (*R)—N-(5-(5-(2-cyclopropyl-2-hydroxypropoxy)-2-methylpyridin-4-yl)pyrazolo[1,5-a]pyridin-2-yl)cyclopropanecarboxamide]
0.0195 | Cc1cc(-c2ccn3nc(NC(=O)C4CC4)cc3c2)c(OC[C@@H](O)C2CCCCC2)cn1 (single isomer, unassigned) [Example 197, (*S)—N-(5-(5-(2-cyclohexyl-2-hydroxyethoxy)-2-methylpyridin-4-yl)pyrazolo[1,5-a]pyridin-2-yl)cyclopropanecarboxamide]
0.0175 | Cc1cc(-c2ccn3nc(Nc4cc(C)nc(C)n4)cc3c2)c(OC[C@H]2CCO[C@H]2C)cn1 (single isomer, unassigned) [Example 206, N-(2,6-dimethylpyrimidin-4-yl)-5-(2-methyl-5-(((2*S,3*R)-2-methyltetrahydrofuran-3-yl)methoxy)pyridin-4-yl)pyrazolo[1,5-a]pyridin-2-amine]
0.013 | Cc1cc(-c2ccn3nc(NC(=O)C4CC4)cc3c2)c(OC[C@]2(C#N)CCNC2)cn1 (single isomer, unassigned) [Example 211, (*R)—N-[5-[5-[[(3R)-3-cyanopyrrolidin-3-yl]methoxy]-2-methyl-4-pyridyl]pyrazolo[1,5-a]pyridin-2-yl]cyclopropanecarboxamide]
0.0116 | Cc1cc(-c2ccn3nc(NC(=O)C4CC4)cc3c2)c(O[C@H]2CCC[C@H](O)C2)cn1 (single isomer, unassigned) [Example 195, trans-N-(5-(5-(((1*S,3*S)-3-hydroxycyclohexyl)oxy)-2-methylpyridin-4-yl)pyrazolo[1,5-a]pyridin-2-yl)cyclopropanecarboxamide]
0.0107 | Cc1cc(-c2ccn3nc(NC(=O)C4CC4)cc3c2)c(OCC(C)(N)C(F)(F)F)cn1 (single isomer, unassigned) [Example 159, (*R)—N-[5-[5-(2-amino-3,3,3-trifluoro-2-methyl-propoxy)-2-methyl-4-pyridyl]pyrazolo[1,5-a]pyridin-2-yl]cyclopropanecarboxamide]
0.00555 | CO[C@H]1CNC[C@@H]1COc1cnc(C)cc1-c1ccn2nc(NC(=O)C3CC3)cc2c1 (relative stereo) [Example 458, Trans-*R, *R—N-[5-[5-[(4-methoxypyrrolidin-3-yl)methoxy]-2-methyl-4-pyridyl]pyrazolo[1,5-a]pyridin-2-yl]cyclopropanecarboxamide]
0.00307 | Cc1cc(-c2ccn3nc(NC(=O)C4CC4)cc3c2)c(OCC2(C#N)CCNC2)cn1 (single isomer, unassigned) [Example 210, (*S)—N-[5-[5-[(3-cyanopyrrolidin-3-yl)methoxy]-2-methyl-4-pyridyl]pyrazolo[1,5-a]pyridin-2-yl]cyclopropanecarboxamide]
0.00265 | Cc1cc(-c2ccn3nc(Nc4cc(C)nc(C)n4)cc3c2)c(OCC2CC(=O)N(C)C2(C)C)cn1 (racemic) [Example 325, (rac)-4-[[4-[2-[(2,6-dimethylpyrimidin-4-yl)amino]pyrazolo[1,5-a]pyridin-5-yl]-6-methyl-3-pyridyl]oxymethyl]-1,5,5-trimethyl-pyrrolidin-2-one]
